Assay results taken from article PMC12589998, “Development and validation of a UHPLC-QqQ-MS/MS method for simultaneous determination of fifteen major components from Oroxyli seed extract in rat plasma and its application in the pharmacokinetic study” (Frontiers in Pharmacology, 2025).

What was measured:
[1] = Pharmacokinetic study in rats after oral administration of OS extract (UHPLC-QqQ-MS/MS of plasma); type: in vivo, rat; conditions: for concentration at 0.5 h / AUC(0-t) / AUC(0-inf) / Cmax / half-life / Tmax: male; for concentration at 0.5 h: SD, 3 g/kg, rat plasma collected 0.5 h after oral administration of the OS extract, read-out: Concentration printed in MRM chromatogram of plasma sample (Figure 2C); for AUC(0-t) / AUC(0-inf) / Cmax / half-life / Tmax: rat plasma, oral 3 g/kg OS extract, n = 6, mean ± SD; for AUC(0-t): read-out: AUC(0-t); for AUC(0-inf): read-out: AUC(0-∞); for Cmax: read-out: Cmax; for half-life: read-out: T1/2 (converted); for Tmax: read-out: Tmax
Description: The UHPLC-QqQ-MS/MS system consisted of a 1290 UHPLC and a 6470 mass spectrometer (Agilent Technologies). Chromatographic separation was realized on utilizing an ACQUITY UPLC BEH C18 column (2.1 × 100 mm, 1.7 μm) maintained at 35 °C. The mobile phase consisting of 0.1% formic acid in water (A) and acetonitrile (B) was utilized with the elution program set at 0 min–1 min, 5% B–30% B; 1 min–4 min, 30% B– 50% B; 4 min–8 min, and 50% B–90% B. The injection volume was 5 μL, and the flow rate was 0.3 mL/min. The mass spectrometry parameters in the negative ion mode, gas temperature, flow rate, and nebulizer pressure were 300 °C, 7 L/min, and 35 psi, respectively. The mass spectra properties of the 15 analytes and the IS are illustrated in Table 1.
To 100 μL of the plasma sample, 20 μL of methanol, 20 μL of IS solution (methylparaben, 1 μg/mL), and 5 μL of formic acid were added and vortexed for a duration of 2 min. Subsequently, the mixture underwent extraction with 800 μL of acetonitrile for 3 min. Following 10 min of centrifugation at 12,000 g, the supernatant was collected and evaporated to dryness under N2 to obtain the residue. Finally, the residue was reconstituted in 50% methanol (100 μL) and utilized for analysis.
Before initiating the study, six male SD rats underwent a 12-h fasting period, during which they were granted unrestricted access to water. Then, the rats were administered an oral dose of 3 g/kg of the OS extract, which had been dissolved in 0.5% CMC-Na aqueous solution. Blood samples, approximately 200 μL each, were collected at various time points: before administration and at 0.03, 0.08, 0.17, 0.25, 0.5, 0.75, 1, 2, 4, 6, 8, 10, 12, 24, 36, and 48 h post-administration. Following 10 min of centrifugation at 6,000 g, the resultant samples were stored at −80 °C.
The developed method was effectively applied to study the pharmacokinetics in rats following oral administration of the OS extract. […] This was likely due to their low concentrations in the OS extract. Ultimately, nine components (chrysin, chrysin-7-O-β-D-glucuronide, baicalin, baicalein, oroxin A, oroxin B, oroxylin A, oroxylin A-7-O-β-D-glucuronide, and scutellarein) were successfully fitted with pharmacokinetic parameters. The average plasma concentration–time profiles of these substances are depicted in Figure 3. […] All data were presented as the mean ± standard deviation (Mean ± SD).

[2] = Stability of the analytes in rat plasma samples under storage conditions; type: physicochemical; conditions: n = 6
Description: The bioanalytical method validation was evaluated for specificity, linearity, sensitivity, precision and accuracy, recovery, matrix effect, and stability to ensure compliance with the U.S. Food and Drug Administration (FDA) guidance on precise quantitative analysis ([Center for Drug Evaluation and Research of the U.S., 2018]). The assessment of specificity was conducted by comparing the chromatograms obtained from blank plasma, blank plasma spiked with the target components, and samples gathered following the oral administration of OS extract. Calibration curves were constructed by plotting the ratio for the peak area of the analyte to IS versus the concentration, with 1/x^2 serving as the weighting factor. The lower limit of quantification (LLOQ) was defined as the concentration at which a signal to noise ratio of […] 10 was achievable. The evaluation of precision and accuracy involved the analysis of six QC samples, both within a single day and over 3 consecutive days. Accuracy was expressed as the relative error (RE), whereas precision was gauged via relative standard deviation (RSD). Extraction recovery was ascertained by juxtaposing the responses of analytes in extracted samples against those in samples that were spiked post-extraction. The matrix effect was scrutinized by determining the ratio of the responses of the analytes in post-extraction spiked samples to those in the mixed standard solution. The stability of the analytes in plasma samples was explored under diverse conditions: encompassing a 12-h period in an autosampler, a 4-h interval at room temperature, three cycles of freezing–thawing, and a 7-day duration at −80 °C.
The retention times of the analyte peaks were consistent with those in the spiked samples. […] The LLOQs for chrysin, chrysin-7-O-β-D-glucuronide, hispidulin, wogonoside, quercetin, quercetin-7-O-β-D-glucoside, baicalin, baicalein, acacetin, oroxin A, oroxin B, oroxylin A, oroxylin A-7-O-β-D-glucuronide, apigenin, and scutellarein were 1.0, 2.0, 1.0, 0.3, 1.0, 0.1, 9.0, 6.0, 0.3, 6.0, 4.0, 1.0, 2.0, 0.5, and 0.3 ng/mL, respectively. In Supplementary Table S2, the RE for accuracy is between −13.77% and 12.55%, and the RSD for precision is below 14.55% (both intra- and inter-day). […] The matrix effect varied from 60.15% to 115.53%, with RSD values below 10.54%. In Supplementary Table S4, the RSD values for stability of the analytes are found to be lower than 13.98%, meaning that these components were stable under the following conditions: encompassing a 12-h period in an autosampler, a 4-h interval at room temperature, three cycles of freezing and thawing, and a 7-day duration at −80 °C.

[3] = spiked concentration 6400 ng/mL

| Compound | concentration at 0.5 h [1] [ng/mL] | AUC(0-t) [1] [ng·h/mL] | AUC(0-inf) [1] [ng·h/mL] | Cmax [1] [ng/mL] | half-life [1] [min] | Tmax [1] [h] | Measured, -80°C for 7 days ([2]; spiked concentration 40 ng/mL) [ng/mL] | Measured, Autosampler for 12 h ([2]; spiked concentration 40 ng/mL) [ng/mL] | Measured, Room temperature for 4 h ([2]; spiked concentration 40 ng/mL) [ng/mL] | Measured, Three freeze-thaw cycles ([2]; spiked concentration 40 ng/mL) [ng/mL] | Measured, -80°C for 7 days ([2]; spiked concentration 400 ng/mL) [ng/mL] | Measured, Autosampler for 12 h ([2]; spiked concentration 400 ng/mL) [ng/mL] | Measured, Room temperature for 4 h ([2]; spiked concentration 400 ng/mL) [ng/mL] | Measured, Three freeze-thaw cycles ([2]; spiked concentration 400 ng/mL) [ng/mL] | Measured, -80°C for 7 days [2, 3] [ng/mL] | Measured, Autosampler for 12 h [2, 3] [ng/mL] | Measured, Room temperature for 4 h [2, 3] [ng/mL] | Measured, Three freeze-thaw cycles [2, 3] [ng/mL] | also measured |
| --- | --- | --- | --- | --- | --- | --- | --- | --- | --- | --- | --- | --- | --- | --- | --- | --- | --- | --- | --- |
| O=c1cc(-c2ccccc2)oc2cc(O[C@@H]3O[C@H](CO[C@@H]4O[C@H](CO)[C@@H](O)[C@H](O)[C@H]4O)[C@@H](O)[C@H](O)[C@H]3O)c(O)c(O)c12 [Oroxin B, oroxin B] | 1130 | 2120 | 2230 | 1990 | 238 ± 82.2 | 0.22 ± 0.04 | 37.76 ± 3.31 | 39.10 ± 2.32 | 41.95 ± 3.13 | 38.40 ± 1.50 | 393.06 ± 24.72 | 436.20 ± 27.56 | 430.23 ± 11.61 | 392.81 ± 19.18 | 5937.71 ± 352.01 | 6506.73 ± 286.20 | 6564.94 ± 412.78 | 6068.65 ± 216.91 | – |
| O=C(O)[C@H]1O[C@@H](Oc2cc(O)c3c(=O)cc(-c4ccccc4)oc3c2)[C@H](O)[C@@H](O)[C@@H]1O [Chrysin-7-O-β-D-glucuronide, chrysin-7-O-β-D-glucuronide] | 879 | 43500 | 44900 | 3320 | 287 ± 137 | 10 ± 2 | 37.32 ± 1.14 | 39.57 ± 2.48 | 39.19 ± 3.16 | 43.49 ± 1.13 | 409.88 ± 38.24 | 419.16 ± 29.59 | 419.25 ± 24.55 | 402.45 ± 17.08 | 6210.06 ± 535.52 | 5954.05 ± 243.71 | 6145.55 ± 285.25 | 6316.77 ± 188.36 | – |
| O=c1c(O)c(-c2ccc(O)c(O)c2)oc2cc(O)cc(O)c12 [Quercetin, quercetin] | 26 | – | – | – | – | ~10 | – | – | – | – | – | – | – | – | – | – | – | – | Plasma levels ([1]; rat plasma after oral OS extract): too weak to obtain comprehensive pharmacokinetic curves; Measured, -80°C for 7 days ([2]; spiked concentration 2 ng/mL): 1.81 ± 0.12 ng/mL; Measured, Autosampler for 12 h ([2]; spiked concentration 2 ng/mL): 1.90 ± 0.21 ng/mL; Measured, Room temperature for 4 h ([2]; spiked concentration 2 ng/mL): 1.80 ± 0.22 ng/mL; Measured, Three freeze-thaw cycles ([2]; spiked concentration 2 ng/mL): 1.80 ± 0.09 ng/mL; Measured, -80°C for 7 days ([2]; spiked concentration 20 ng/mL): 17.37 ± 0.79 ng/mL; Measured, Autosampler for 12 h ([2]; spiked concentration 20 ng/mL): 17.83 ± 1.42 ng/mL; Measured, Room temperature for 4 h ([2]; spiked concentration 20 ng/mL): 19.06 ± 1.54 ng/mL; Measured, Three freeze-thaw cycles ([2]; spiked concentration 20 ng/mL): 20.46 ± 0.77 ng/mL; Measured, -80°C for 7 days ([2]; spiked concentration 320 ng/mL): 285.05 ± 20.53 ng/mL; Measured, Autosampler for 12 h ([2]; spiked concentration 320 ng/mL): 325.17 ± 28.70 ng/mL; Measured, Room temperature for 4 h ([2]; spiked concentration 320 ng/mL): 298.43 ± 22.04 ng/mL; Measured, Three freeze-thaw cycles ([2]; spiked concentration 320 ng/mL): 288.07 ± 26.80 ng/mL |
